Earlier results, collected in patent US6399785B1, “Multiply-substituted fullerenes” (C-Sixty, Inc., priority 1995, dated 2002).
Like-named read-outs stand apart in the source and are kept apart here.

Columns and labels:
HIV [1] = details: human PBMC acutely infected with HIV, in vitro
HIV [2] = details: H9 cells chronically infected with HIV, in vitro

bis (monosuccinimide) derivative of p,p′-bis (2-aminoethyl) diphenyl C60
antiviral activity (HIV [1]): showed antiviral activity | antiviral activity (HIV [2]): showed antiviral activity
